The values below come from article PMC11784183, “Identification of an antibiotic from an HTS targeting EF-Tu:tRNA interaction: a prospective topical treatment for MRSA skin infections” (Applied and Environmental Microbiology, 2024).

For this series the following is noted: mouse, in vivo, ip, 10 mg/kg.

As for `CC[C@@H]1Cc2cc(O)ccc2C2=C1c1ccc(O)cc1C[C@H]2CC` [MGC-10], the “passage of the blood brain barrier” value was “did not pass the blood brain barrier”.
